From patent US6825182B2, “17α-fluoroalkyl-11β-benzaldoxime steroids, process for their production, pharmaceutical preparations that contain these steroids as well as their use for the production of pharmaceutical agents” (Schering AG, priority 2002, dated 2004)

What was measured:
[1] = test system: pregnancy in rats; test: Early abortive action in rats after subcutaneous administration from the 5th to 7th day of pregnancy; type: in vivo, rat; details: s.c., day 5-7 of pregnancy; for Complete Inhibition of Pregnancy (empty uteri) N#/N: nonpregnant females/paired females
Source text: (§1) The methods for the in-vitro tests and the in-vivo tests with the compounds according to the invention can be found in EP 0 411 733 A2 and DE 43 32 283 A1: […]

[2] = test system: Glucocorticoid Receptor; test: Receptor bond: relative molar binding affinity to the glucocorticoid receptor; details: Dexamethasone = 100%
[3] = test system: Progesterone Receptor; test: Receptor bond: relative molar binding affinity to the progesterone receptor; details: Progesterone = 100%
Source text: as §1

[4] = cited from earlier work
[5] = test system: tumor models; details: in vivo; cited from earlier work

| Molecule | Complete Inhibition of Pregnancy (empty uteri) ([1]; 0.3 mg/animal/day) | Complete Inhibition of Pregnancy (empty uteri) N#/N ([1]; 0.3 mg/animal/day) | Complete Inhibition of Pregnancy (empty uteri) ([1]; 1 mg/animal/day) | Complete Inhibition of Pregnancy (empty uteri) N#/N ([1]; 1 mg/animal/day) | Relative Molar Binding-affinity RBA (%) to the Glucocorticoid Receptor [2] | Relative Molar Binding-affinity RBA (%) to the Progesterone Receptor [3] | other results |
| --- | --- | --- | --- | --- | --- | --- | --- |
| 4-[17β-Hydroxy-17α-(1,1,1-trifluoroethyloxymethyl)-3-oxoestra-4,9-dien-11β-yl]-benzaldehyde-(1E)-oxime [Example 6] | 100 | 4/4 | 100 | 4/4 |  |  | Complete Inhibition of Pregnancy (empty uteri) ([1]; 0.1 mg/animal/day): 0; Complete Inhibition of Pregnancy (empty uteri) N#/N ([1]; 0.1 mg/animal/day): 0/4 |
| CC12CC(c3ccc(C=NO)cc3)C3=C4CCC(=O)C=C4CCC3C1CCC2(O)C(F)(F)F (stereo not drawn) [Compound No. 2, 4-[17β-Hydroxy-17α-(1,1,1-trifluoromethyl)-3-oxoestra-4,9-dien-11β-yl]benzaldehyde-1(Z)-oxime] |  |  |  |  | 113% | 123% |  |
| CC12CC(c3ccc(C=NO)cc3)C3=C4CCC(=O)C=C4CCC3C1CCC2(O)C(F)(F)F (stereo not drawn) [Example 1, 4-[17β-Hydroxy-17α-(trifluoromethyl)-3-oxoestra-4,9-dien-11β-yl]benzaldehyde-(1E)-oxime] | 100 | 4/4 | 100 | 4/4 | 163% | 272% | Complete Inhibition of Pregnancy (empty uteri) ([1]; 0.03 mg/animal/day): 0; Complete Inhibition of Pregnancy (empty uteri) N#/N ([1]; 0.03 mg/animal/day): 0/6; Complete Inhibition of Pregnancy (empty uteri) ([1]; 0.1 mg/animal/day): 75; Complete Inhibition of Pregnancy (empty uteri) N#/N ([1]; 0.1 mg/animal/day): 1/4 |
| CC12CC(c3ccc(C=NO)cc3)C3=C4CCC(=O)C=C4CCC3C1CCC2(O)C(F)(F)C(F)(F)F (stereo not drawn) [Example 2, 4-[17β-Hydroxy-17α-(1,1,2,2,2-pentafluoroethyl)-3-oxoestra-4,9-dien-11β-yl]-benzaldehyde-(1E)-oxime] |  |  | 100 | 5/5 | 10% | 23% |  |
| CCNC(=O)ON=Cc1ccc(C2CC3(C)C(CCC3(O)C(F)(F)C(F)(F)F)C3CCC4=CC(=O)CCC4=C23)cc1 (stereo not drawn) [Example 3, 4-[17β-Hydroxy-17α-(1,1,2,2,2-pentafluoroethyl)-3-oxoestra-4,9-dien-11β-yl]-benzaldehyd-1-one-(1E)-{O-(ethylamino)carbonyl-oxime] |  |  | 100 | 4/4 | 84% | 230% |  |
| COC1(C(F)(F)C(F)(F)F)CCC2C3CCC4=CC(=O)CCC4=C3C(c3ccc(C=NO)cc3)CC21C (stereo not drawn) [Example 4, 4-[17β-Methoxy-17α-(1,1,2,2,2-pentafluoroethyl)-3-oxoestra-4,9-dien-11β-yl]-benzaldehyde-(1E)-oxime] |  |  | 50 | 2/4 |  |  |  |
| CN(C)c1ccc([C@H]2C[C@]3(C)[C@@H](CC[C@]3(O)CCCO)[C@@H]3CCC4=CC(=O)CCC4=C32)cc1 [Onapristone, reference compound] |  |  |  |  | 39% | 22% |  |
| CC#C[C@]1(O)CC[C@H]2[C@@H]3CCC4=CC(=O)CCC4=C3[C@@H](c3ccc(N(C)C)cc3)C[C@@]21C [RU 486, 11β-(4-Dimethylaminophenyl)-17β-hydroxy-17α-propinyl-estra-4,9-dien-3-one, reference compound] | 0 | 0/5 | 20 | 1/5 |  |  | Complete Inhibition of Pregnancy (empty uteri) ([1]; 3 mg/animal/day): 100; Complete Inhibition of Pregnancy (empty uteri) N#/N ([1]; 3 mg/animal/day): 5/5 |
| CC(=O)c1ccc([C@H]2C[C@@]3(C)[C@@H](CC[C@@]3(O)C(F)(F)C(F)(F)F)[C@@H]3CCC4=CC(=O)CCC4=C32)cc1 [ZK 230 211, 11β-(4-Acetylphenyl)-17β-hydroxy-17α-(1,1,2,2,2-pentafluoroethyl)-estra-4,9-dien-3-one, reference compound] | 0 | 0/6 | 75 | 3/4 |  |  | Receptor selectivity (in words) [4]: high receptor selectivity; Complete Inhibition of Pregnancy (empty uteri) ([1]; 3 mg/animal/day): 100; Complete Inhibition of Pregnancy (empty uteri) N#/N ([1]; 3 mg/animal/day): 4/4; Antiproliferative activity in the tumor models (in words) [5]: antiproliferative activity |
| CCNC(=O)ON=Cc1ccc(C2CC3(C)C(CCC3(O)C(F)(F)F)C3CCC4=CC(=O)CCC4=C23)cc1 (stereo not drawn) [compound 3, 4-[17β-Hydroxy-17α-(1,1,1-trifluoromethyl)-3-oxoestra-4,9-dien-11β-yl]benzaldehyde-1(E)-[O-(ethylamino)carbonyl]oxime] |  |  |  |  | 187% | 98% |  |
| CC(=O)ON=Cc1ccc(C2CC3(C)C(CCC3(O)C(F)(F)C(F)(F)F)C3CCC4=CC(=O)CCC4=C23)cc1 (stereo not drawn) [compound 5, 4-[17β-Hydroxy-17α-(1,1,2,2,2-pentafluoroethyl)-3-oxoestra-4,9-dien-11β-yl]benzaldehyde-1(E)-O-acetyloxime] |  |  |  |  | 10% | 0.5% |  |
